Assay [1] in a line: Binding studies of sensor with Fe3+ (Job's plot, titration, EDTA reversibility). The procedure:
Job's method and UV-vis spectra were applied to study the binding stoichiometry between Rh-PK and Fe^3+ and monitored by the absorbance at 555 nm. […] The binding constant of this complex was calculated following a method reported previously (G. E. Tumambac, et al., Tetrahedron 2004, 60, 11293-11297), using absorption values at […] by the equations described below, and was determined to be 1.54×10^7 […].
The equations below was used to calculate the binding constants with stoichiometry of 1:1. L+S↔LS where L=sensor, S=Fe3+ and LS=sensor-Fe^3+ complex. The apparent binding constant is given by
[formula] Fe is the fraction of L that formed a complex, [LS]e is concentration at equilibrium, [L]0 is the initial concentration. Au, Am, and Ac are the absorbances of solutions of L (before any Fe^3+ was added), during the titration and at saturation, respectively. The concentration of free Fe^3+ at equilibrium, [S]e, is found with the following identity. [S]e=[S]o−[LS]e=[S]o−Fc[L]o The apparent binding constant K can then be calculated from
Reversibility experiments were carried out by adding EDTA to the complex in ACN/Tris-HCl buffer (10 mM, pH 7.3, v/v 3:1). […]
The stoichiometry of RhHPA-Fe^3+ was measured using Job's plot and mole ratio plots methods. B. Valeur, Molecular Fluorescence: Principles and Applications, Wiley-VCH. […] To determine the binding constant of chemosensor, a fluorescence titration of different amounts of Fe^3+ into the acetonitrile solution of sensor was carried out. […] The determination of the binding constant of RhHPA was calculated using the following equation: F−Fmin=[…](Fmax−Fmin)/Kd where F is the observed fluorescence, Fmax is the maximum fluorescence for the RhHPA-Fe^3+ complex at concentration of the equal reacted between sensor and metal cation, Fmin is the fluorescence intensity for occurring RhHPA-Fe^3+.
Absorption enhancement observation at 558 nm was plotted against the molar value of the [Fe^3+]/[Fe^3+]+RhHPA and [Fe^3+]/RhHPA. […] Binding constant of fluorescent sensor “RhHPA” was calculated and it was found as K=1.27×10^7 M^−1. […]

Assay [2] relates to human fibroblast cells (ws1). Briefly: Confocal imaging of Fe3+ with Rh-PK in ws1 cells. The format is cell-based. The procedure: Human SH-SY5Y neuroblastoma cells and primary fibroblast ws1 cells were obtained from ATCC (American Type Culture Collection). Cells were maintained in a 1:1 mixture of Eagle's Minimal Essential medium (ATCC) and Ham's F12 medium (ATCC) supplemented with 10% fetal bovine serum (FBS, ATCC) without antibiotics and incubated at 37° C. in a humidified 5% CO2 atmosphere. The cells were routinely sub-cultured using 0.05% trypsin-EDTA solution (ATCC). The cells were seeded onto 2-chamber slides for 48 h at 5×10^4 cells/chamber and grown until each chamber was 20-30% confluent. A stock solution of Rh-PK ([…] in […]) was diluted to a concentration of […] in culture medium without FBS. […] The fluorescence responses of the sensor in living cells were measured under a Zeiss LSM 710 laser scanning confocal microscope. […] The REUSE function controlled by Zeiss software was applied to guarantee that all spectra were recorded under the same instrumental conditions.
The ability of Rh-PK to track Fe^3+ in live human fibroblast cells (ws1) was tested via a laser scanning confocal microscope (Zeiss LSM 710). […] Turn on fluorescence was observed, which is likely being triggered by endogenous labile Fe^3+. […]
FIG. 17A to FIG. 17C show the distribution of exchangeable Fe^3+ pools in live fibroblast cells (ws1). […] FIG. 17A is the Rh-PK-Fe3+ fluorescence intensity collected at 547-703 nm (red). […]

Data on one molecule can be found in US11685741B2, “Fluorescent probes” (University of Massachusetts, priority 2017, dated 2023).

For the molecule `CCN(CC)c1ccc2c(c1)Oc1cc(N(CC)CC)ccc1C21c2ccccc2C(=O)N1CC/N=C(\C)c1cccc(C(C)=O)n1` [Rh-PK, (E)-2-(2-((1-(6-acetylpyridin-2-yl)ethylidene)amino)ethyl)-3′,6′-bis(diethylamino)spiro[isoindoline-1,9′-xanthen]-3-one], in assay [1] (1:1 Fe^3+-Rh-PK complex, from absorption titration), the binding constant stood at 1.54e+07 M⁻¹. In addition, in assay [1] (1:1 sensor-Fe^3+ complex, ACN/Tris-HCl buffer pH 7.3), the apparent binding constant is 1.54e+07 M⁻¹. The “fluorescence of Fe^3+-loaded cells versus before loading” value in assay [2] (10 μM Rh-PK, cells loaded with 50 μM Fe^3+) is “brighter and more widely distributed fluorescence signals”. For the same molecule, the “fluorescence response after Fe^3+ pre-depletion” value in assay [2] (SIH 100 μM overnight, then Rh-PK) is listed as “weaker fluorescence response”.
